Measured values published in PMC5656594 (Scientific Reports, 2017).

Tests used:
IN alone (IN^PFV) = target: T1, IN alone (IN^PFV) (Human spumaretrovirus, UniProt P14350); assay: DTG fluorescence enhancement in the presence of IN alone; type: binding, prototype foamy virus (PFV); conditions: 1 mM Mg2+
T1 construct: The full-length wt IN^PFV, the three single mutants of the catalytic triad; His; made in house; host or cells: E. coli BL21-CodonPlus (DE3)-RIPL
Experimental: The three other conditions (i→iii) led to superimposable spectra. To note, the presence of IN/DNA complexes accounts for light scattering on the blue side of the spectrum.
All experiments were performed in the presence of 1 mM Mg^2+ (see Supplementary Fig. S4 for [Mg^2+] = 10 mM). λex = 345 nm and PMT = 980 V (Δλex = Δλem = 5 nm). […] Contributions of Raman and Rayleigh scattering were eliminated in the inset spectrum: (viii) = (iv)–(vii) where (vii) represents the proper spectrum of Mg^2+-DTG in the context of the binary IN-DNA complex. […] [Mg^2+] = 1 mM. Inset: fluorescence intensity (375–385 nm) as a function of (IN + DNA). The arrows indicate the intensity level after addition of 500 mM NaCl. Emission spectra are representative of 3 independent experiments for each condition of (IN + DNA). […] (E) Measurement of the binary IN-DNA complex formation. The formation of binary complexes was performed by monitoring the fluorescence anisotropy (r) of DNA (Fl-PFV^CAAT) under similar experimental conditions of the DTG-binding assay (panels C-D). Top, varying stoichiometric concentrations of IN and DNA were mixed and the r parameter was monitored. […]
Fluorescence excitation and emission spectra of INSTIs were recorded on a Eclipse (Varian) spectrofluorimeter equipped with two polarizers for anisotropy measurements and a thermostated cell holder, using 80 µl solutions placed in micro cells (Hellma). […]

D128N IN^PFV-DNA complex = target: T2, D128N IN^PFV-DNA complex (Human spumaretrovirus, UniProt P14350, D879N/G968S/S969G); assay: Fluorescence enhancement DTG-binding assay, D128N catalytic mutant; parameters: species or system prototype foamy virus (PFV); conditions: 1 mM Mg2+
T2 construct: The pET-IN-PFV plasmid containing the full-length IN gene was used for mutagenesis; His; made in house; host or cells: E. coli BL21-CodonPlus (DE3)-RIPL
Experimental: The fluorescence intensity was monitored as a function of (IN + DNA) and plotted as a function of the binary IN-DNA complex concentration (measured as explained in Fig. 2E legend). […] (B) The percentage of ternary complexes was calculated using DTG fluorescence enhancement. […] The graphs in panels A-B show representative data of three independent experiments. […] "DTG" is taken from the y-axis title of the same panel.
To note, Mg^2+ is dispensable for the overall DNA-binding step of IN[32],[43]–[45] and thus, the loss of Mg^2+ chelation is not contradictory with results showing that catalytic mutants bind equally well to DNA and in a similar manner than wt IN (Supplementary Fig. S6). However, G187R cannot be considered as a catalytic mutant since it sustains a significant ST activity although weak (≈10% of the wt activity; Fig. 6).
Fluorescence excitation and emission spectra of INSTIs were recorded on a Eclipse (Varian) spectrofluorimeter equipped with two polarizers for anisotropy measurements and a thermostated cell holder, using 80 µl solutions placed in micro cells (Hellma). […] The steady-state fluorescence anisotropy was calculated using: r = (IVV–G x IVH)/(IVV + 2GxIVH) where IVV and IVH correspond to vertical and horizontal components, respectively, when the sample is excited with vertically polarized light. […]

[1] = target: T3, IN^PFV-DNA complexes (DNA#1, DNA#6, DNA#7) (Human spumaretrovirus, UniProt P14350); assay: Inhibition of ST activity by DTG using DNA#1, DNA#6 or DNA#7 substrates; type: biochemical, prototype foamy virus (PFV); conditions: 100 nM DTG, 300 nM IN
T3 construct: The full-length wt IN^PFV, the three single mutants of the catalytic triad; His; made in house; host or cells: E. coli BL21-CodonPlus (DE3)-RIPL
Source text: The results in Table 1 cannot discriminate between a direct sequence effect on DTG-binding from an indirect effect via a possible defect in the IN-DNA interaction. The binding of IN to various DNA sequences (DNA#1 #8 #9 and #13) was similar, as measured by fluorescence anisotropy using fluorescein-labeled DNAs (Supplementary Fig. S5A). […] The X-ray structure of the IN^PFV-DNA complex highlights specific contacts (about 9) between amino acids and the bases of the two strands (i.e. reactive and non-transferred DNA strands), up to the 10th position from the reactive strand 3′-end[26]. In particular, there is a specific contact involving a guanine of the non-transferred strand at pos. 10 and the N69 residue. […] To note, based on X-ray structures of ternary RAL/or DTG-IN-DNA complexes[26],[29] in which the INSTI has direct contacts with several bases at pos.
Figure S5. Comparison of the binary INPFV-DNA complex formation using various DNA sequences. (A) The binding of INPFV to various DNA sequences was studied by steady-state […]
concentrations of IN and DNA were mixed in the presence of 1mM Mg2+ and the r parameter was monitored. A constant concentration of Fl-DNA (0.3 µM) was maintained throughout the titration. The percentage of binary complexes as a function of (IN+DNA) was calculated using: %=(r–r0)/(rmax–r0) x100 where r0 and rmax correspond to anisotropy values of free DNA and IN-bound DNA, respectively.
(B) ST activity of IN (200 or
300 nM) after 4h incubation at 37°C using radiolabeled DNA#1, #6 or #7. Results are expressed as percentage of the activity corresponding to: DNA#1 + 300 nM IN. (C) Inhibition of the ST activity by […]
IN concentration was 300 nM. For each substrate,
The bar graphs in panels B-
(also on this page, place not known: PFV-DNA steady -state IN Strand transfer activity (% of ST with and 300 nM IN) strand transfer (% of untreated) Binary IN-DNA complexes (%) DNA#1)

IN = conditions: INSTIs; cited from earlier work

C[C@@H]1CCO[C@H]2Cn3cc(C(=O)NCc4ccc(F)cc4F)c(=O)c(O)c3C(=O)N12 [DTG, dolutegravir]
DTG binding to IN alone (IN alone (IN^PFV)): no DTG binding | DTG binding to D128N catalytic mutant (D128N IN^PFV-DNA complex): loss of DTG-binding | ST inhibition by DTG ([1]; IN-DNA#1 complexes): remained DTG-sensitive | ST inhibition by DTG ([1]; IN-DNA#6 complexes): remained DTG-sensitive | ST inhibition by DTG ([1]; IN-DNA#7 complexes): absence of ST inhibition | IC50 values (IN): low-nanomolar range
